Data taken from patent publication US12078634B2, “Broad spectrum kinase binding agents” (Promega Corporation, priority 2018, dated 2024).
Blank lines part the entries; values can stand above or below the compound they belong to.

Tests used:
[1] = system: kinase/NanoLuc® (Nluc) fusion proteins; test: NanoBRET relative BRET signal of kinase tracers against a panel of kinase/NanoLuc fusions in live cells; type: cell-based; conditions: HEK293 cells, 2 hours, 0.5 uM CC-1804, CC-1852, or 1 uM CC-1294; compared to CC-1294
Protocol: (§1) FIG. 1A-B. Summary of the BRET results generated with kinase tracers against a large panel of kinase/NanoLuc® fusions expressed in live cells. Assay signals were assessed by taking the ratio of BRET in the presence of tracer/no tracer control. Assays are categorized as follows: >3-fold signal (green cells), 2-3 fold signal (yellow cells), and 1.5-2 fold signal (red cells).
as §1, with “1C-F. Individual BRET signals observed between” for “1A-B. Summary of”, “broad-spectrum” for “BRET results generated with”, “and individual” for “against a large panel of”
Experiments were conducted during development of embodiments herein to derive a comprehensive analysis of intracellular kinase target engagement using NanoBRET™ tracers derived from CC-1294 versus NanoBRET™ tracers derived from novel inhibitors. […] NanoBRET was measured on a Glomax® Discover plate reader. To determine relative BRET signals, BRET arising from the tracer was divided by BRET in the absence of tracer.

[2] = system: kinase/Nluc fusions
Protocol: NanoBRET™ assays were run by competitive displacement of NanoBRET™ tracers in living HEK293 cells.
Values were measured by competitive displacement of NanoBRET™ tracers in living cells.
In wells of 96-well plates, 20,000 HEK293 cells per well were transfected with kinase/Nluc fusions expressed from pFN31K and pFN32K plasmids. Transfections were performed using 3:1 FuGENE HD:plasmid ratios. 24 hours post transfection, cells were treated for 2 hours in the presence of tracer and varying concentration of control inhibitor indicated. After incubation, NanoBRET™-TE substrate/inhibitor solution was added to a final concentration of 1×, and BRET was measured on a Glomax® Discover plate reader.

[3] = system: kinase/Nluc fusions; test: NanoBRET fractional occupancy by competitive displacement of NanoBRET tracers in living HEK293 cells; type: cell-based; conditions: of the 200 kinases evaluated, 300 nM test compound, 2 hours, CC-1861 vs CTx (FIG. 5)
Protocol: Transfections were performed using 3:1 FuGENE HD:plasmid ratios.

Compound: NC(=O)c1ccccc1Nc1nc(Nc2cccc(N3CCNCC3)c2)ncc1Cl [CC-1852]
target engagement/kinase profiling breadth (relative BRET signal, tracer / no tracer) [1]: unexpectedly broad spectrum target engagement/kinase profiling

inhibitor potency compared to CTx ([2]; HEK293 cells, 2 hours, tracer plus varying concentration of inhibitor (FIG. 7)): increased inhibitor potency
Compound: NC(=O)c1ccccc1Nc1nc(Nc2ccc(N3CCNCC3)cc2)ncc1Cl [CC-1861, 2-((5-chloro-2-((4-(piperazin-1-yl)phenyl)amino)pyrimidin-4-yl)amino)benzamide]
intracellular affinity compared to CTx-0294885 ([2]; living HEK293 cells, four targets tested (FIG. 7)): stronger than CTx-0294885 for three of the four targets tested

Compound: CNC(=O)c1ccccc1Nc1nc(Nc2ccc(N3CCNCC3)cc2)ncc1Cl [CTx-0294885, 2-((5-chloro-2-((4-(piperazin-1-yl)phenyl)amino)pyrimidin-4-yl)amino)-N-methylbenzamide]
number of kinases that preferred the compound over the other [3]: 4
